Measured values: PubChem BioAssay AID1996
Values after ≈ are worked out from the molar mass of the structure shown.

settings: buffer; pH 7.4; 200.0 µM

solubility kinetic	SMILES
> 57.2 µg/mL	NS(=O)(=O)c1ccc(N2CCOCC2)c(C(=O)NCc2cccs2)c1
10.5 µg/mL (≈ 24 µM)	N#CCC(=O)Nc1ccc(C(=O)OCC(=O)NC(=O)Nc2ccc3c(c2)OCCO3)cc1
> 61.3 µg/mL	O=C(c1cc(-c2ccncc2)nc2ccccc12)N1CCN(Cc2ccccc2)CC1
> 48.7 µg/mL	NC(=O)C1CCN(C(=O)c2cc(Cl)c3c(c2)OCCO3)CC1
> 41 µg/mL	CC1CCN(S(=O)(=O)c2c[nH]c(=O)[nH]c2=O)CC1
44.5 µg/mL (≈ 141 µM)	O=C(Cc1ccc(Cl)cc1)N1CCN(c2ccccc2)CC1
> 42.2 µg/mL	ONC(=Nc1ccccc1Cl)c1ccccc1Cl
> 46.2 µg/mL	Oc1ccc(Cl)cc1C=Nc1ccc2c3c(cccc13)CC2
< 0.2 µg/mL	O=[N+]([O-])c1cc(-c2cnc3ccccc3n2)ccc1Cl
> 44.4 µg/mL	NC(=O)CN1C(=O)C(=O)N(Cc2ccccc2Cl)C1=O
40.5 µg/mL (≈ 130 µM)	Cc1ccc(NC(=O)CSc2ncc3ccccn23)cc1C
0.9 µg/mL (≈ 3.43 µM)	Clc1ccc(CN2CCSCC2)c(Cl)c1
43.2 µg/mL (≈ 139 µM)	C#CC1CCCCC1NC(=O)Nc1cnccc1C(F)(F)F (stereo not drawn)
> 49.6 µg/mL	N#Cc1ccccc1OCC(=O)OCC(=O)NC1CCCCCC1
36 µg/mL (≈ 108 µM)	OCC1(Cc2ccccc2)CCCN(Cc2c[nH]c3ccccc23)C1 (stereo not drawn)
36.5 µg/mL (≈ 137 µM)	CNC(=O)c1c(NC(=O)C(C)C)sc2c1CCC2
> 55.1 µg/mL	N#Cc1ccc(C(=O)OCC(=O)N2CCN(C(=O)c3ccco3)CC2)cc1
40.7 µg/mL (≈ 129 µM)	CC(C)(C)OC(=O)N1CCC[C@H]1C(=O)Nc1ccc(C#N)cc1
> 57.9 µg/mL	O=C(CN1C(=O)c2ccccc2S1(=O)=O)Nc1ncc(Cl)cc1Cl
> 49.3 µg/mL	COCCCN1C(=O)CS/C1=N\S(=O)(=O)c1ccccc1
51.9 µg/mL (≈ 147 µM)	Fc1cccc(NC(=S)N2CCn3cccc3C2c2cccnc2)c1 (stereo not drawn)
16 µg/mL (≈ 58.1 µM)	COc1ccc(NC(=O)C2CC2)cc1OC1CCCC1
> 42.7 µg/mL	Cc1[nH]c2ccccc2c1C(=O)CN1CC(C)CC(C)C1 (stereo not drawn)

solubility kinetic	SMILES
0.5 µg/mL (≈ 1.85 µM)	Cc1ccc(-c2cc(C(=O)NC3CCCC3)no2)cc1
2 µg/mL (≈ 7.03 µM)	O=C(Nc1ccccc1F)NC1CCCc2ccccc21 (stereo not drawn)
< 0.2 µg/mL	Cc1cc(SCC(=O)Nc2cccnc2Cl)nc2ccccc12
> 32.3 µg/mL	Cc1cc(C)nc(Nc2ccc(O)cc2)n1
30.9 µg/mL (≈ 103 µM)	COc1cccc(C(=O)NCCNC(=O)c2cnccn2)c1
8.5 µg/mL (≈ 21.9 µM)	CC(C)Oc1ccc(C(=O)Nc2cccc(S(=O)(=O)N3CCCC3)c2)cc1
> 42.8 µg/mL	O=C1CSC(c2cccc(O)c2)N1Cc1ccccc1 (stereo not drawn)
> 43.6 µg/mL	O=C(NCc1cccc(F)c1)C1CCC(=O)N(C2CC2)C1 (stereo not drawn)
13.2 µg/mL (≈ 33.9 µM)	CCC1(c2ccc(F)cc2)NC(=O)N(CC(=O)NC2CCCC(C)C2C)C1=O (stereo not drawn)
0.7 µg/mL (≈ 1.98 µM)	COc1ccccc1N1CCN(C(=O)c2cc3cc(F)ccc3[nH]2)CC1
> 50.4 µg/mL	Cc1ccc(Cl)cc1NC(=O)CN1C(=O)NC(C)(C2CC2)C1=O (stereo not drawn)
39 µg/mL (≈ 129 µM)	CC(Sc1ccccn1)C(=O)Nc1ccc2c(c1)OCO2 (stereo not drawn)
45.9 µg/mL (≈ 148 µM)	O=C(NCCc1ccccc1)C1CCCN(c2cnccn2)C1 (stereo not drawn)
42.3 µg/mL (≈ 128 µM)	CC(=O)Nc1ccc(Sc2ccccc2C(=O)O)c(C(=O)O)c1
22.5 µg/mL (≈ 79.1 µM)	CC1CCCCN1S(=O)(=O)c1ccc([N+](=O)[O-])cc1 (stereo not drawn)
> 45.9 µg/mL	COc1ccc(NC(=O)CN(C)C(=O)C2=COCCO2)cc1
> 41.6 µg/mL	CCOc1cc(C=O)ccc1OCC(=O)N1CCCC1
1.9 µg/mL (≈ 7.3 µM)	Cc1cc2ccccn2c1C(=O)c1ccc(C#N)cc1
38.3 µg/mL (≈ 122 µM)	N#CCC(=O)Nc1ccc(C(F)(F)F)cc1N1CCOCC1
31.7 µg/mL (≈ 93.7 µM)	CC1CCCN(CC(=O)N2c3ccccc3Sc3ccccc32)C1 (stereo not drawn)
1.1 µg/mL (≈ 3.39 µM)	COc1ccc2[nH]c(C(=O)NCc3ccc4c(c3)OCO4)cc2c1
27.7 µg/mL (≈ 132 µM)	COCC(=O)Nc1ccc2c(c1)OCO2
< 0.4 µg/mL	COCCn1c(C)cc(O)c(C(=O)Nc2cccc(Cl)c2)c1=O

solubility kinetic	SMILES
> 40.7 µg/mL	Cc1cccc(C(=O)Nc2ccc(O)cc2C(=O)O)c1
15.8 µg/mL (≈ 53.5 µM)	COc1ccc(CC(=O)NC2CCCc3ccccc32)cc1 (stereo not drawn)
5.4 µg/mL (≈ 18.7 µM)	S=C(/N=c1/sccn1Cc1ccccc1)NC1CC1
> 32.6 µg/mL	Cc1ccc(C)c(NC(=O)C2CCCC2)c1
41.8 µg/mL (≈ 131 µM)	COCc1cc(C)n(CC(=O)NCC2CCCO2)c(=O)c1C#N (stereo not drawn)
20.1 µg/mL (≈ 50.3 µM)	COc1ccc(S(=O)(=O)NCCC(=O)NC2CCCCC2C)cc1[N+](=O)[O-] (stereo not drawn)
> 51.8 µg/mL	Cc1nc(SCC(=O)NCc2ccc3c(c2)OCO3)nc(C)c1C
> 41.3 µg/mL	O=C(/C=C/c1ccc2c(c1)OCO2)NCC1CCCO1 (stereo not drawn)
> 26.3 µg/mL	NCCCn1cnc2ccccc21
> 67.3 µg/mL	CC(=O)Nc1ccc(S(=O)(=O)N(C)CC(=O)N2CCN(C(=O)c3ccco3)CC2)cc1
39 µg/mL (≈ 103 µM)	COc1ccc(-c2nc(CN3CCN(c4ncccn4)CC3)c(C)o2)cc1C
37.8 µg/mL (≈ 114 µM)	CCn1ccnc1CN(C)Cc1nc(-c2cccc(Cl)c2)no1
0.8 µg/mL (≈ 1.74 µM)	N#Cc1c(N2CCN(c3ccc(F)cc3)CC2)nc(N)c2c(N)nc3c(c12)CC(=O)N3C1CC1
> 46.6 µg/mL	CCc1cccc(NS(=O)(=O)c2csc(C(N)=O)c2)c1
5 µg/mL (≈ 15.7 µM)	CC1CC(C)CN(C(=O)c2cccc3c2-c2ccccc2C3=O)C1 (stereo not drawn)
> 43.6 µg/mL	CC1CCN(C(=O)CSc2nc3ncccc3[nH]2)CC1
30.2 µg/mL (≈ 116 µM)	CC(C)c1ccc(OCC(=O)NC2CCCC2)cc1
0.5 µg/mL (≈ 1.52 µM)	Cc1ccc(-c2csc(NC(=O)CN3C(=O)CCC3=O)n2)cc1
> 43.6 µg/mL	Cc1ccc(C(=O)NC(=O)CSc2nncn2C)cc1
> 39.1 µg/mL	O=C(Nc1ccccc1N1CCCC1)C1CCCO1 (stereo not drawn)
0.8 µg/mL (≈ 2.39 µM)	O=C1NC(=O)/C(=C\c2cn(Cc3ccccc3F)c3ccccc23)N1

Further lines, the molecule ahead of its results:

SMILES	solubility kinetic
Cn1cc(C(=O)Nc2ccccn2)c(=O)c2ccccc21	1.3 µg/mL (≈ 4.65 µM)
CN1C(=O)C(=O)/C(=C(/O)c2ccccc2)C1c1ccccc1 (stereo not drawn)	> 44 µg/mL
CCOc1ccc(NC(=O)c2cccc(NC(=O)c3ccccc3)c2)cc1	0.8 µg/mL (≈ 2.22 µM)
Cc1cc(C(=O)Nc2ccccc2)c2ccccc2n1	3 µg/mL (≈ 11.4 µM)
Cn1c(C(=O)c2ccccc2)nc2ccccc21	24 µg/mL (≈ 102 µM)
CC(C)(C)NC(=O)C(OC(=O)c1cccs1)c1ccc(F)cc1 (stereo not drawn)	1.3 µg/mL (≈ 3.88 µM)
Cc1c(N2C(=O)c3cccc4cccc(c34)C2=O)cnn1C	> 43.7 µg/mL
CN1CCCN(C(=O)COc2cccc(C(F)(F)F)c2)CC1	> 47.4 µg/mL
O=C(Nc1ccccc1C(F)(F)F)c1cc2ccccc2o1	< 0.7 µg/mL
Cc1cccc(NC(=O)C[n+]2ccc(N(C)C)cc2)c1.[Cl-]	45.9 µg/mL
Cc1nnc(SCC(=O)NC(C)(C)C)n1NCc1cccc(Br)c1	> 61.9 µg/mL
CCOC(=O)c1ccc(NC(=O)CSCCC(=O)O)cc1	45.1 µg/mL (≈ 145 µM)
CCc1nc2ccccc2c(C(=O)NCc2ccc(OC)cc2)c1C	47.9 µg/mL (≈ 143 µM)
O=C1c2ccccc2C(=O)N1S(=O)(=O)c1ccccc1	> 43.1 µg/mL
CN(Cc1cnccn1)Cc1nc(Cc2cccc(F)c2)no1	46.3 µg/mL (≈ 148 µM)
O=C(O)C1CCCN1C(=O)NC1CCCCC1 (stereo not drawn)	30.4 µg/mL (≈ 127 µM)
Cc1ccc(NC(=O)C(C)SCc2ccccc2)cc1 (stereo not drawn)	32.8 µg/mL (≈ 115 µM)
O=C(COC(=O)c1ccc[nH]c1=O)Nc1ccc2c(c1)OC(F)(F)O2	> 52.8 µg/mL
Cc1ccccc1Oc1nc(-c2ccccn2)nc2ccccc12	35 µg/mL (≈ 112 µM)
COc1ccc2[nH]c(C(=O)Nc3cccc(C)n3)cc2c1	1.9 µg/mL (≈ 6.75 µM)
CC(CNC(=O)COC(=O)c1ccco1)c1ccccc1 (stereo not drawn)	> 43.1 µg/mL
COc1ccc(NC(=O)COC(=O)Cn2cnc3ccccc32)cc1	> 50.9 µg/mL
Cc1ccc(C2C(C(=O)c3ccco3)=C(O)C(=O)N2c2ncccn2)cc1 (stereo not drawn)	> 54.2 µg/mL
O=C(O)c1cccc(Nc2c3ccccc3nc3ccccc23)c1	2.4 µg/mL (≈ 7.63 µM)
COc1cc(OC)cc(C(=O)NCC(=O)OCC(=O)NC(C)CCc2ccccc2)c1 (stereo not drawn)	> 64.3 µg/mL
OCCCNc1ncnc2oc(-c3ccccc3)c(-c3ccccc3)c12	17.5 µg/mL (≈ 50.7 µM)

SMILES	solubility kinetic
O=C(Nc1ccc2nccnc2c1)c1ccco1	> 35.9 µg/mL
Cc1cccc(C(=O)N[C@H](C(=O)Nc2ccc3c(c2)OCO3)C(C)C)c1	5.5 µg/mL (≈ 15.5 µM)
COc1cc(OC)c(C(=O)OCC(=O)NC2CCCC2)cc1OC	> 50.6 µg/mL
OC1(C(F)(F)F)CC(c2ccc3ccccc3c2)=NO1 (stereo not drawn)	> 42.2 µg/mL
Cc1ccc2c(c1C)NC(=O)CC(c1ccccc1O)=N2	0.6 µg/mL (≈ 2.14 µM)
Cc1cc(NC(=O)c2cccc(C)c2[N+](=O)[O-])no1	< 0.2 µg/mL
O=C(COC(=O)c1ccc(Cl)nc1)NCCc1ccc(F)cc1	> 50.5 µg/mL
COc1ccc(-c2nc(-c3cccnc3)no2)cc1	2.1 µg/mL (≈ 8.29 µM)
Cc1ccccc1NS(=O)(=O)c1cccc2nonc12	> 43.4 µg/mL
O=C1NC(c2ccc(O)cc2)Nc2ccccc21 (stereo not drawn)	29.2 µg/mL (≈ 122 µM)
O=C(CCCN1C(=O)c2cccc3cccc(c23)C1=O)NCc1ccco1	1.5 µg/mL (≈ 4.14 µM)
CCOc1ccc(CCNC(=O)COC(=O)/C=C/c2ccco2)cc1OCC	39.5 µg/mL (≈ 102 µM)
Cc1cc(C)c(S(=O)(=O)Nc2ccc3[nH]c(=O)[nH]c3c2)c(C)c1	2.8 µg/mL (≈ 8.45 µM)
COc1cc(NC(=S)Nc2ccc(OC(F)F)cc2)cc(OC)c1	23.9 µg/mL (≈ 67.4 µM)
CC(=O)c1sc(Nc2cccc3ccccc23)nc1C.Cl	5.2 µg/mL
Cc1cc(C)cc(NC(=O)C(C)N2C(=O)c3ccccc3C2=O)c1 (stereo not drawn)	14.4 µg/mL (≈ 44.7 µM)
NS(=O)(=O)c1ccc(CNC(=O)Cc2ccccc2[N+](=O)[O-])cc1	50.1 µg/mL (≈ 143 µM)
CCCCOc1ccc(C(=O)NCCc2ccccc2)cc1	< 0.6 µg/mL
O=C(Nc1cccnc1)OCc1ccccc1	23 µg/mL (≈ 101 µM)
COc1ccc(-c2nc3n(c2C)Cc2ccccc2-3)cc1	16.3 µg/mL (≈ 59 µM)
CCCCCC1CC(CC(=O)Nc2ccc([N+](=O)[O-])cc2)OC1=O (stereo not drawn)	0.5 µg/mL (≈ 1.5 µM)
O=C(Nc1cccnc1)c1ccc(CSc2ccccc2)cc1	< 0.3 µg/mL
Cc1cc(C)c(C(N)=O)c(SCC(=O)c2cc(C)n(-c3cc(C)on3)c2C)n1	1.9 µg/mL (≈ 4.77 µM)
CCCCCCc1ccc(OC(=O)c2ccncc2)cc1	0.7 µg/mL (≈ 2.47 µM)
Cc1ccc(NC(=O)CSc2nc3ccccc3c(=O)[nH]2)cc1[N+](=O)[O-]	3.6 µg/mL (≈ 9.72 µM)
